Assay type in all cases: cell-based
Test [1] relates to human breast cancer cell line SKBR3. Description: Test 1 of anti-proliferative activity against tumor cells (Cell-Titer Glo). The following applies: Homo sapiens, SK-BR-3, 120 h. The protocol: (§1) Cell culture: HCT116 cells and SKBR3 cells were cultured in McCoy's 5a medium containing 10% fetal bovine serum+1% penicillin-streptomycin at 37° C. and 5% CO2, and OVCAR3 cells were cultured in 1640 medium containing 20% fetal bovine serum+2 μg/mL bovine insulin+1% penicillin-streptomycin at 37° C. and 5% CO2. Cells in logarithmic growth phase were suitable for the experiment.
(§2) Detection of cell proliferation activity: The inhibitory activity of the compounds on the proliferation of the three cell lines HCT116, SKBR3 and OVCAR3 was detected using Cell-Titer Glo reagent. HCT116 cells (1500 cells per well), SKBR3 cells (3000 cells per well) and OVCAR3 cells (5000 cells per well) were seeded in 96-well plates and cultured at 37° C. and 5% CO2 for 24 h. The solution of the compound to be tested (the compound was dissolved in DMSO with the concentration of the compound being 1 mM, then the compound was diluted to 3 μM with DMSO, with 3-fold dilution and a total of 9 concentrations, and 10 μL of the prepared compound solution was transferred to a 96-well plate with the final concentration of 0-300 nM) was added. The cells were placed at 37° C. and 5% CO2 for further culture. HCT116 cells were cultured for 3 days, and SKBR3 cells and OVCAR3 cells were cultured for 5 days. The cell viability was detected by adding Cell-Titer Glo reagent.
(§3) Additionally, a negative control group and a positive control group were provided as Bottom and Top, respectively. In the negative control group, the cells were not added, only the same volume of medium was added, and other operations were consistent with those in the experimental group; in the positive control group, the test compound was not added, only the same volume of DMSO was added, and other operations were consistent with those in the experimental group.
(§4) Data analysis: The % compound inhibition was calculated, and fitting was performed to obtain IC50 of the compound.
(§5) % Compound inhibition=1−100%*(Signal−Bottom)/(Top−Bottom).
(§6) Signal represents the signal value of the experimental group, Bottom represents the average signal value of the negative control group, and Top represents the average signal value of the positive control group.

The subject of test [2] is human ovarian cancer cell line OVCAR3. Described as above. The following applies: Homo sapiens, OVCAR-3, 120 h. The method, then: as §1, §2, §3, §4, §5, §6
The subject of test [3] is Human colorectal cancer cell line HCT116. Described as above. The following applies: Homo sapiens, HCT-116, 72 h. The method, then:
as §1, §2, §3, §4, §5, §6

The subject of test [4] is human ovarian cancer cell line PA-1. Description: Test 2 of anti-proliferative activity against tumor cells (Cell-Titer Glo). The following applies: Homo sapiens, PA-1, 120 h. The protocol:
(§7) Cell culture: SK-OV-3 cells were cultured in McCoy's 5a medium containing 10% fetal bovine serum+1% penicillin-streptomycin, PA-1 cells were cultured in MEM medium containing 10% fetal bovine serum+1% MEM NEAA+1% sodium pyruvate+1% penicillin-streptomycin, NCI-H82 cells and MDA-MB-231 cells were cultured in 1640 medium containing 10% fetal bovine serum+1% penicillin-streptomycin, A549 cells were cultured in DMEM medium containing 10% fetal bovine serum+1% penicillin-streptomycin, all under conditions of 37° C. and 5% CO2. Cells in logarithmic growth phase were suitable for the experiment.
(§8) Detection of cell proliferation activity: The inhibitory activity of the compounds on the proliferation of the five cell lines SK-OV-3, PA-1, NCI-H82, MDA-MB-231 and A549 was detected using Cell-Titer Glo reagent. SK-OV-3 cell (1000 cells per well), PA-1 cells (800 cells per well), NCI-H82 cells (5000 cells per well), MDA-MB-231 cells (3000 cells per well) and A549 cells (400 cells per well) were seeded in 96-well plates and cultured at 37° C. and 5% CO2 for 24 h. The compound to be tested was dissolved in DMSO to a concentration of 1 mM, then subjected to gradient dilution with DMSO and corresponding medium, and transferred to 96-well cell plates to a final concentration of 300 nM (initial concentration), with 3-fold dilution and a total of 9 concentration points. The cells were cultured at 37° C. and 5% CO2 for additional 5 days. The cell viability was detected by adding Cell-Titer Glo reagent.
as §3, §4, §5, §6

Test [5] relates to Human ovarian cancer cell line SK-OV-3. The test is described as above. The following applies: Homo sapiens, SK-OV-3, 120 h. The protocol:
as §7, §8, §3, §4, §5, §6

For test [6], the system named is human breast cancer cell line MDA-MB-231. The test is described as above. The following applies: Homo sapiens, MDA-MB-231, 120 h. The method, then: as §7, §8, §3, §4, §5, §6
The test system of test [7] is human non-small cell lung cancer cell line A549. The test is described as above. The following applies: Homo sapiens, A549, 120 h. The protocol:
as §7, §8, §3, §4, §5, §6

The mark [8] stands for this setting: SKBR3 cells, cultured 5 days with compound, Cell-Titer Glo, read-out: SKBR3 Anti-proliferative activity IC50.
Where [9] appears, read: OVCAR3 cells, cultured 5 days with compound, Cell-Titer Glo, read-out: OVCAR3 Anti-proliferative activity IC50.
Setting [10] is: HCT116 cells, cultured 3 days with compound, Cell-Titer Glo, read-out: HCT116 Anti-proliferative activity IC50.
[11] abbreviates: read-out: SKBR3 Anti-proliferative activity IC50 (nM), SKBR3 cells, cultured 5 days with compound, Cell-Titer Glo.
Setting [12] is: read-out: OVCAR3 Anti-proliferative activity IC50 (nM).
Setting [13] is: read-out: HCT116 Anti-proliferative activity IC50 (nM), HCT116 cells, cultured 3 days with compound, Cell-Titer Glo.
Setting [14] is: read-out: PA-1 Anti-proliferative activity IC50 (nM), PA-1 cells, 5 days, Cell-Titer Glo.
Setting [15] is: PA-1 cells, 5 days, Cell-Titer Glo, read-out: PA-1 Anti-proliferative activity IC50.
Where [16] appears, read: SK-OV-3 cells, 5 days, Cell-Titer Glo, read-out: SK-OV-3 Anti-proliferative activity IC50.
[17] abbreviates: MDA-MB-231 cells, 5 days, Cell-Titer Glo, read-out: MDA-MB-231 Anti-proliferative activity IC50.
Where [18] appears, read: A549 cells, 5 days, Cell-Titer Glo, read-out: A549 Anti-proliferative activity IC50.

Like-named read-outs stand apart in the source and are kept apart here.

By IC50 is commonly meant the point on the concentration scale where inhibition reaches its midpoint. As for `CC[C@@]1(O)C(=O)OCc2c1cc1n(c2=O)Cc2c-1nc1cc(F)c(Cl)c(F)c1c2CNC(=O)C(O)C1CC1` (stereo partly drawn) [Compound 23-P1, N-(((S)-9-chloro-4-ethyl-8,10-difluoro-4-hydroxy-3,14-dioxo-3,4,12,14-tetrahydro-1H-pyrano[3′,4′:6,7]indolizino[1,2-b]quinolin-11-yl)methyl)-2-cyclopropyl-2-hydroxyacetamide], the IC50 came to 5.8 nM in test [1] (setting [8]), 1.9 nM in test [2] (setting [9]) and 7.9 nM in test [3] (setting [10]).

For `CC[C@@]1(O)C(=O)OCc2c1cc1n(c2=O)Cc2c-1nc1cc(F)c(Cl)c(F)c1c2CNC(=O)[C@@H](C)O` [Compound 25, (R)-N-(((S)-9-chloro-4-ethyl-8,10-difluoro-4-hydroxy-3,14-dioxo-3,4,12,14-tetrahydro-1H-pyrano[3′,4′:6,7]indolizino[1,2-b]quinolin-11-yl)methyl)-2-hydroxypropanamide], the results for the IC50 in test [1] (setting [11]), in test [2] (setting [12]) and in test [3] (setting [13]) were 3.7 nM, 2 nM and 7.9 nM, respectively.

As to `CC[C@@]1(O)C(=O)OCc2c1cc1n(c2=O)Cc2c-1nc1cc(F)c(Cl)c(F)c1c2CNC(=O)[C@H](C)O` [Compound 26, (S)-N-(((S)-9-chloro-4-ethyl-8,10-difluoro-4-hydroxy-3,14-dioxo-3,4,12,14-tetrahydro-1H-pyrano[3′,4′:6,7]indolizino[1,2-b]quinolin-11-yl)methyl)-2-hydroxypropanamide], the IC50 in test [1] (setting [11]) was determined as 4.2 nM; in test [2] (setting [12]), 1.6 nM; in test [3] (setting [13]) it was 9.5 nM.

On to `CC[C@@]1(O)C(=O)OCc2c1cc1n(c2=O)Cc2c-1nc1cc3c(c(F)c1c2CN)OCO3` [Compound 35, (S)-14-(aminomethyl)-7-ethyl-15-fluoro-7-hydroxy-10,13-dihydro-11H-[1,3]dioxolo[4,5-g]pyrano[3′,4′:6,7]indolizino[1,2-b]quinoline-8,11(7H)-dione], for which the IC50 stood at 0.8 nM in test [4] (setting [14]) and 0.9 nM in test [2] (setting [12]).

As for `CC[C@@]1(O)C(=O)OCc2c1cc1n(c2=O)Cc2c-1nc1cc3c(c(F)c1c2CNC(=O)C(O)C1CC1)OCO3` (stereo partly drawn) [Compound 37, 2-cyclopropyl-N-(((S)-7-ethyl-15-fluoro-7-hydroxy-8,11-dioxo-7,8,11,13-tetrahydro-10H-[1,3]dioxolo[4,5-g]pyrano[3′,4′:6,7]indolizino [1,2-b]quinolin-14-yl)methyl)-2-hydroxyacetamide], the IC50 was 0.9 nM in test [4] (setting [14]); 3.5 nM in test [5] (read-out: SK-OV-3 Anti-proliferative activity IC50 (nM)); 23.9 nM in test [6] (read-out: MDA-MB-231 Anti-proliferative activity IC50 (nM)); 19.6 nM in test [7] (read-out: A549 Anti-proliferative activity IC50 (nM), A549 cells, 5 days, Cell-Titer Glo); 3.5 nM in test [1] (setting [11]); 1.2 nM in test [2] (setting [12]). Besides, in test [3] (setting [13]), the 50% inhibitory concentration (IC50) came out at 8.1 nM.

For the compound `CC[C@@]1(O)C(=O)OCc2c1cc1n(c2=O)Cc2c-1nc1cc3c(c(F)c1c2CNC(=O)[C@@H](O)C1CC1)OCO3` [Compound 37-P2, 2-cyclopropyl-N-(((S)-7-ethyl-15-fluoro-7-hydroxy-8,11-dioxo-7,8,11,13-tetrahydro-10H-[1,3]dioxolo[4,5-g]pyrano[3′,4′:6,7]indolizino [1,2-b]quinolin-14-yl)methyl)-2-hydroxyacetamide], the IC50 in test [4] (setting [15]) turned out to be 1.1 nM; in test [5] (setting [16]), 3 nM; in test [6] (setting [17]) it was 25.9 nM; in test [7] (setting [18]) it was 16.1 nM; in test [1] (setting [8]), 3.6 nM; in test [2] (setting [9]) it was 1.8 nM.

Turning to `[2H]C1([2H])Oc2cc3nc4c(c(CNC(=O)[C@@H](O)C5CC5)c3cc2O1)Cn1c-4cc2c(c1=O)COC(=O)[C@]2(O)CC` [Compound 39-P1, 2-cyclopropyl-N-(((S)-7-ethyl-7-hydroxy-8,11-dioxo-7,8,11,13-tetrahydro-10H-[1,3]dioxolo[4,5-g]pyrano[3′,4′:6,7]indolizino[1,2-b]quinolin-14-yl-2,2-d2)methyl)-2-hydroxyacetamide], the IC50 in test [4] (setting [15]) turned out to be 0.9 nM; in test [5] (setting [16]), 1.9 nM; in test [6] (setting [17]), 15.6 nM; in test [7] (setting [18]), 13.9 nM; in test [1] (setting [8]), 1.9 nM; in test [2] (setting [9]), 0.6 nM. Moreover, the IC50 in test [3] (setting [10]) was 4.6 nM.

Values taken from patent US20250270227A1, “CAMPTOTHECIN DERIVATIVE, AND PHARMACEUTICAL COMPOSITION AND USE THEREOF” (SIMCERE ZAIMING PHARMACEUTICAL CO., LTD., priority 2021, published 2025).
